# Experimental data as given in patent publication US7312330B2, “Bicycloheteroarylamine compounds as ion channel ligands and uses thereof” (Renovis, Inc., priority 2003, dated 2007).
# Target: hVR1 (Homo sapiens, UniProt Q8NER1)
# Assay: Calcium imaging assay (Fura2) of VR1 antagonists, proton stimulation
# Format: cell-based
# Conditions: HEK 293 cells expressing hVR1; for IC50: calcium ion influx induced by proton stimulation; for % Inhibition @ 1 μM: calcium ion influx induced by proton stimulation (pH 5.7)
# Text: VR1 protein is a heat-gated cation channel that exchanges about 10 calcium ions for every sodium ion resulting in neuronal membrane depolarization and elevated intracellular calcium ion levels. Therefore the functional activity of compounds at the VR1 receptor may be determined by measuring changes in intracellular calcium levels in 293 cells expressing capsaicin-insensitive VR1 receptor variants. A dual wavelength ratiometric dye, Fura2, was used as an indicator of relative levels of calcium ions in a 96 well format using a bench top scanning fluorometer with integrated fluidics and temperature control (Flex Station, Molecular Devices).
# A dual wavelength ratiometric dye, Fura2, was used as an indicator of relative levels of [Ca2+] in a 96 well format using a bench top scanning fluorometer with integrated fluidics and temperature control (Flex Station, Molecular Devices).
# HEK 293 cells expressing hVR1 were grown on PDL coated 96-well black-walled plates, in the presence of a DMEM medium containing 5% Penstrep, 5% Glutamax, 200 ug/mL Hygromycin, 5 μg/mL Blasticide and 10% heat inactivated FBS. Prior to assay, the cells were loaded with 5 μg/mL Fura2 in normal saline solution at 37° C. for 40 minutes. Cells were then washed with normal saline to remove the dye.
# The assay consists of two stages; a pre-treatment phase followed by a treatment phase. In the pretreatment phase, 50 μl of a compound solution was added to the cells. Immediately following, 50 μl of the test compound in the presence of agonist (a saline solution plus 10 mM citric acid bufferd to pH 5.7 with HCl) was added. Fura2 was excited at […] to indicate relative calcium concentration. Changes in wavelength measurements were made throughout the course of the experiment in 4 second intervals over a period of 3 minutes. The fluorescence ratio from the excitations at […] was recorded for analysis. Responses were measured as peak fluorescence ratio after compound-agonist addition minus baseline fluorescence ratio prior to treatment and were calculated for each concentration tested using the SoftMaxPro software. Data was expressed as percentage inhibition calculated as follows: […]
# A dose response curve was then determined, from which the ID50 of each compound was calculated.
# hVR1, sequence (Q8NER1 whole entry): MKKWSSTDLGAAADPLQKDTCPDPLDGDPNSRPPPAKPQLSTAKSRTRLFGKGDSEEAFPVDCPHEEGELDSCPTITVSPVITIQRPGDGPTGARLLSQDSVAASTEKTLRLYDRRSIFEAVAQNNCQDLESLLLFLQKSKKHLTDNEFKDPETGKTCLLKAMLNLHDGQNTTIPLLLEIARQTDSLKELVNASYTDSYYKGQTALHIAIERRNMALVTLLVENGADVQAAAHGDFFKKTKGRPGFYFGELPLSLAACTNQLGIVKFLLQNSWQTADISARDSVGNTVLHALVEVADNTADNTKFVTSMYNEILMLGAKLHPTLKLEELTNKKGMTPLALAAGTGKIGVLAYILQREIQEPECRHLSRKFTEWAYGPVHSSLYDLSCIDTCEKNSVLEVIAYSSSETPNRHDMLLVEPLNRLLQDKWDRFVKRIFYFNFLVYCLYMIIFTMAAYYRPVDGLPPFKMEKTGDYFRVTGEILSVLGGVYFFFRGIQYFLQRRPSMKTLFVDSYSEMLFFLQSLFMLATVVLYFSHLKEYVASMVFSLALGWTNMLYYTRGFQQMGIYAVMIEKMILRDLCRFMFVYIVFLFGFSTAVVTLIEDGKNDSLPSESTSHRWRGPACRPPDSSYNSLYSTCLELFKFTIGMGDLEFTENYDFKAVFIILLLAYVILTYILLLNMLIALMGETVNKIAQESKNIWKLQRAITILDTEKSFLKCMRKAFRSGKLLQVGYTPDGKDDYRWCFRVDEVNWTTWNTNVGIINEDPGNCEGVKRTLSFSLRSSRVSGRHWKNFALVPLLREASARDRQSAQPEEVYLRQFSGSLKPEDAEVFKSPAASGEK
structure (smiles),measurement,value
"CC(C)S(=O)(=O)c1cccnc1N1CCc2c(ncnc2Nc2ccc(C(F)(F)F)cc2)C1 [Example 16, N-(4-(Trifluoromethyl)phenyl)-5,6,7,8-tetrahydro-7-(3-(isopropylsulfonyl)pyridin-2-yl)pyrido[3,4-d]pyrimidin-4-amine]",IC50,> 1000 nM
"CC(C)(C)c1ccc(Nc2ncnc3c2CCN(c2ncccc2C(F)(F)F)C3)cc1.Cl [Example 4, N-(4-tert-Butylphenyl)-7-(3-(trifluoromethyl)pyridin-2-yl)-5,6,7,8-tetrahydropyrido[3,4-d]pyrimidin-4-amine hydrochloride]",% Inhibition @ 1 μM,++++ (compound exhibited 76% or greater inhibition of calcium ion influx induced by proton stimulation)
same,IC50,< 100 nM
"Clc1cccnc1N1CCc2c(ncnc2NCCCc2ccccc2)C1 [Example 51, 7-(3-Chloropyridin-2-yl)-5,6,7,8-tetrahydro-N-(3-phenylpropyl)pyrido[3,4-d]pyrimidin-4-amine]",% Inhibition @ 1 μM,+ (compound exhibited 0-25% inhibition of calcium ion influx induced by proton stimulation)
"Fc1cccnc1N1CCc2c(ncnc2Nc2ccc(C(F)(F)F)cc2)C1 [Example 11, [7-(3-Fluoro-pyridin-2-yl)-5,6,7,8-tetrahydro-pyrido[3,4-d]pyrimidin-4-yl]-(4-trifluoromethyl-phenyl)-amine]",% Inhibition @ 1 μM,++++ (compound exhibited 76% or greater inhibition of calcium ion influx induced by proton stimulation)
same,IC50,101 to 500 nM
"Fc1ccc(Nc2ncnc3c2CCN(c2ncccc2Cl)C3)cc1 [Example 19, 7-(3-Chloropyridin-2-yl)-N-(4-fluorophenyl)-5,6,7,8-tetrahydropyrido[3,4-d]pyrimidin-4-amine]",% Inhibition @ 1 μM,+ (compound exhibited 0-25% inhibition of calcium ion influx induced by proton stimulation)
same,IC50,> 1000 nM
"O=C(O)COc1nc2c(c(Nc3ccc(C(F)(F)F)cc3)n1)CCN(c1ncccc1Cl)C2 [Example 75, 2-(4-(4-(Trifluoromethyl)phenylamino)-7-(3-chloropyridin-2-yl)-5,6,7,8-tetrahydropyrido[3,4-d]pyrimidin-2-yloxy)acetic acid]",% Inhibition @ 1 μM,+ (compound exhibited 0-25% inhibition of calcium ion influx induced by proton stimulation)
same,IC50,> 1000 nM
"FC(F)Oc1ccc(Nc2ncnc3c2CCN(c2ncccc2C(F)(F)F)C3)cc1 [Example 77, N-(4-(difluoromethoxy)phenyl)-7-(3-(trifluoromethyl)pyridin-2-yl)-5,6,7,8-tetrahydropyrido[3,4-d]pyrimidin-4-amine]",% Inhibition @ 1 μM,++++ (compound exhibited 76% or greater inhibition of calcium ion influx induced by proton stimulation)
same,IC50,101 to 500 nM
"COc1cccc(Nc2ncnc3c2CCN(c2cc(C(F)(F)F)ccn2)C3)c1 [Example 72, 7-(4-(Trifluoromethyl)pyridin-2-yl)-5,6,7,8-tetrahydro-N-(3-methoxyphenyl)pyrido[3,4-d]pyrimidin-4-amine]",% Inhibition @ 1 μM,+ (compound exhibited 0-25% inhibition of calcium ion influx induced by proton stimulation)
same,IC50,> 1000 nM
"CC1(C)C(=O)NC(=O)c2cc(Nc3ncnc4c3CCN(c3ncccc3Cl)C4)ccc21 [Example 58, 7-(7-(3-Chloropyridin-2-yl)-5,6,7,8-tetrahydropyrido[3,4-d]pyrimidin-4-ylamino)-4,4-dimethylisoquinoline-1,3(2H,4H)-dione]",IC50,> 1000 nM
CS(=O)(=O)c1cccnc1N1CCc2c(ncnc2Nc2ccc(C(F)(F)F)nc2)C1 [Example 21],% Inhibition @ 1 μM,+++ (compound exhibited 51-75% inhibition of calcium ion influx induced by proton stimulation)
same,IC50,101 to 500 nM
"Clc1cccnc1N1CCc2c(ncnc2NCCOc2ccccc2)C1 [Example 52, 7-(3-Chloropyridin-2-yl)-5,6,7,8-tetrahydro-N-(2-phenoxyethyl)pyrido[3,4-d]pyrimidin-4-amine]",% Inhibition @ 1 μM,+ (compound exhibited 0-25% inhibition of calcium ion influx induced by proton stimulation)
"CN1CC(C)(C)c2ccc(Nc3ncnc4c3CCN(c3ncccc3Cl)C4)cc21 [Example 70, 7-(3-Chloropyridin-2-yl)-5,6,7,8-tetrahydro-N-(1,3,3-trimethylindolin-6-yl)pyrido[3,4-d]pyrimidin-4-amine]",% Inhibition @ 1 μM,++++ (compound exhibited 76% or greater inhibition of calcium ion influx induced by proton stimulation)
same,IC50,< 100 nM
"COC(=O)COc1nc2c(c(Nc3ccc(C(F)(F)F)cc3)n1)CCN(c1ncccc1Cl)C2 [Example 66, Methyl 2-(4-(4-(trifluoromethyl)phenylamino)-7-(3-chloropyridin-2-yl)-5,6,7,8-tetrahydropyrido[3,4-d]pyrimidin-2-yloxy)acetate]",% Inhibition @ 1 μM,++++ (compound exhibited 76% or greater inhibition of calcium ion influx induced by proton stimulation)
same,IC50,< 100 nM
"Oc1nc2c(c(Nc3ccc(C(F)(F)F)cc3)n1)CCN(c1ncccc1Cl)C2 [Example 57, 4-(4-(Trifluoromethyl)phenylamino)-7-(3-chloropyridin-2-yl)-5,6,7,8-tetrahydropyrido[3,4-d]pyrimidin-2-ol]",% Inhibition @ 1 μM,+ (compound exhibited 0-25% inhibition of calcium ion influx induced by proton stimulation)
same,IC50,> 1000 nM
"O=S(=O)(c1ccc(Nc2ncnc3c2CCN(c2ncccc2C(F)(F)F)C3)cc1)C(F)(F)F [Example 76, 7-(3-(trifluoromethyl)pyridin-2-yl)-5,6,7,8-tetrahydro-N-(4-(trifluoromethylsulfonyl)-phenyl)pyrido[3,4-d]pyrimidin-4-amine]",% Inhibition @ 1 μM,++++ (compound exhibited 76% or greater inhibition of calcium ion influx induced by proton stimulation)
same,IC50,< 100 nM
"Nc1nc2c(c(Nc3ccc(C(F)(F)F)cc3)n1)CCN(c1ncccc1Cl)C2 [Example 17, 7-(3-Chloro-pyridin-2-yl)-N^4-(4-trifluoromethyl-phenyl)-5,6,7,8-tetrahydro-pyrido[3,4-d]pyrimidine-2,4-diamine]",% Inhibition @ 1 μM,++++ (compound exhibited 76% or greater inhibition of calcium ion influx induced by proton stimulation)
"Cc1cccc(N2CCc3c(ncnc3Nc3ccc4c(c3)OCCO4)C2)c1 [Example 36, (2,3-Dihydro-benzo[1,4]dioxin-6-yl)-(7-m-tolyl-5,6,7,8-tetrahydro-pyrido[3,4-d]pyrimidin-4-yl)-amine]",% Inhibition @ 1 μM,++ (compound exhibited 26-50% inhibition of calcium ion influx induced by proton stimulation)
"Clc1cccnc1N1CCc2c(ncnc2Nc2ccccc2)C1 [Example 18, 7-(3-Chloropyridin-2-yl)-N-(phenyl)-5,6,7,8-tetrahydropyrido[3,4-d]pyrimidin-4-amine]",% Inhibition @ 1 μM,+ (compound exhibited 0-25% inhibition of calcium ion influx induced by proton stimulation)
same,IC50,> 1000 nM
"CC(C)(C)c1ccc(Nc2nc(CN3CCOCC3)nc3c2CCN(c2ncccc2Cl)C3)cc1 [Example 13, (4-tert-Butyl-phenyl)-[7-(3-chloro-pyridin-2-yl)-2-morpholin-4-ylmethyl-5,6,7,8-tetrahydro-pyrido[3,4-d]pyrimidin-4-yl]-amine]",% Inhibition @ 1 μM,++ (compound exhibited 26-50% inhibition of calcium ion influx induced by proton stimulation)
"Clc1ccc(CNc2ncnc3c2CCN(c2ncccc2Cl)C3)cc1 [Example 41, N-(4-Chlorobenzyl)-7-(3-chloropyridin-2-yl)-5,6,7,8-tetrahydropyrido[3,4-d]pyrimidin-4-amine]",% Inhibition @ 1 μM,++ (compound exhibited 26-50% inhibition of calcium ion influx induced by proton stimulation)
same,IC50,101 to 500 nM
"Clc1cccnc1N1CCc2c(ncnc2Nc2ccc3c(c2)OCCO3)C1 [Example 74, 7-(3-Chloropyridin-2-yl)-5,6,7,8-tetrahydro-N-(2,3-dihydrobenzo[b][1,4]dioxin-6-yl)pyrido[3,4-d]pyrimidin-4-amine]",% Inhibition @ 1 μM,++ (compound exhibited 26-50% inhibition of calcium ion influx induced by proton stimulation)
same,IC50,> 1000 nM
"Cc1ccc(N2CCc3c(ncnc3Nc3ccc(C(F)(F)F)cc3)C2)cc1 [Example 47, 7-(p-Tolyl)-N-(4-(trifluoromethyl)phenyl)-5,6,7,8-tetrahydropyrido[3,4-d]pyrimidin-4-amine]",% Inhibition @ 1 μM,++ (compound exhibited 26-50% inhibition of calcium ion influx induced by proton stimulation)
same,IC50,501 to 1000 nM
